According to paper PMC5814754, “Quantitative, Wide-Spectrum Kinase Profiling in Live Cells for Assessing the Effect of Cellular ATP on Target Engagement” (Cell Chemical Biology, 2018):
Where two headings read alike, the source gives them in different places.

Legend:
Assay in all cases: NanoBRET single-dose fractional occupancy profiling of kinase/Nluc library in live HEK293 cells (Table S1)
Format in all cases: binding
Parameters in all cases: receptor occupancy: dose or concentration left out as unconfirmed; Occupancy, % Replicate 1 / Occupancy, % Replicate 2: unit of the concentration uncertain
178 full-length kinases [1] = molecular target: 178 full-length kinases (Homo sapiens, UniProt O76039); conditions: CDKL5, Nluc N, probe 5 at 1 (unit uncertain)
178 full-length kinases [2] = molecular target: 178 full-length kinases (Homo sapiens, UniProt Q08881); conditions: ITK, Nluc N, probe 5 at 0.01 (unit uncertain)
178 full-length kinases [3] = molecular target: 178 full-length kinases (Homo sapiens, UniProt P52333); conditions: JAK3, Nluc C, probe 5 at 1 (unit uncertain)
178 full-length kinases [4] = molecular target: 178 full-length kinases (Homo sapiens, UniProt Q8TD19); conditions: NEK9, Nluc N, probe 5 at 1 (unit uncertain)
178 full-length kinases [5] = molecular target: 178 full-length kinases (Homo sapiens, UniProt P30291); conditions: WEE1 (NP_003381), Nluc orientation C, probe 5 at 0.05 (unit uncertain)
178 full-length kinases [6] = molecular target: 178 full-length kinases (Homo sapiens, UniProt Q9BVS4); conditions: RIOK2, Nluc N, probe 5 at 1 (unit uncertain)
178 full-length kinases [7] = molecular target: 178 full-length kinases (Homo sapiens, UniProt O94768); conditions: STK17B (NP_004217), Nluc orientation C, probe 1 at 1 (unit uncertain)
178 full-length kinases [8] = molecular target: 178 full-length kinases (Homo sapiens, UniProt Q13627); conditions: DYRK1A, Nluc N, probe 5 at 1 (unit uncertain)
178 full-length kinases [9] = molecular target: 178 full-length kinases (Homo sapiens, UniProt Q14680); conditions: MELK, Nluc N, probe 5 at 1 (unit uncertain)
178 full-length kinases [10] = molecular target: 178 full-length kinases (Homo sapiens, UniProt Q8IWQ3); conditions: BRSK2, Nluc N, probe 5 at 0.5 (unit uncertain)
178 full-length kinases [11] = molecular target: 178 full-length kinases (Homo sapiens, UniProt P22455); conditions: FGFR4, Nluc C, probe 5 at 1 (unit uncertain)
178 full-length kinases [12] = molecular target: 178 full-length kinases (Homo sapiens, UniProt P07333); conditions: CSF1R, Nluc C, probe 6
178 full-length kinases [13] = molecular target: 178 full-length kinases (Homo sapiens, UniProt P51955); conditions: NEK2, Nluc N, probe 5 at 1 (unit uncertain)
178 full-length kinases [14] = molecular target: 178 full-length kinases (Homo sapiens, UniProt P78368); conditions: CSNK1G2, Nluc N, probe 5 at 1 (unit uncertain)
178 full-length kinases [15] = molecular target: 178 full-length kinases (Homo sapiens, UniProt Q9Y2K2); conditions: SIK3 (NP_079440), Nluc orientation N, probe 6 at 1 (unit uncertain)
Chain of 178 full-length kinases (Homo sapiens, UniProt Q9Y2K2) (Q9Y2K2 whole entry): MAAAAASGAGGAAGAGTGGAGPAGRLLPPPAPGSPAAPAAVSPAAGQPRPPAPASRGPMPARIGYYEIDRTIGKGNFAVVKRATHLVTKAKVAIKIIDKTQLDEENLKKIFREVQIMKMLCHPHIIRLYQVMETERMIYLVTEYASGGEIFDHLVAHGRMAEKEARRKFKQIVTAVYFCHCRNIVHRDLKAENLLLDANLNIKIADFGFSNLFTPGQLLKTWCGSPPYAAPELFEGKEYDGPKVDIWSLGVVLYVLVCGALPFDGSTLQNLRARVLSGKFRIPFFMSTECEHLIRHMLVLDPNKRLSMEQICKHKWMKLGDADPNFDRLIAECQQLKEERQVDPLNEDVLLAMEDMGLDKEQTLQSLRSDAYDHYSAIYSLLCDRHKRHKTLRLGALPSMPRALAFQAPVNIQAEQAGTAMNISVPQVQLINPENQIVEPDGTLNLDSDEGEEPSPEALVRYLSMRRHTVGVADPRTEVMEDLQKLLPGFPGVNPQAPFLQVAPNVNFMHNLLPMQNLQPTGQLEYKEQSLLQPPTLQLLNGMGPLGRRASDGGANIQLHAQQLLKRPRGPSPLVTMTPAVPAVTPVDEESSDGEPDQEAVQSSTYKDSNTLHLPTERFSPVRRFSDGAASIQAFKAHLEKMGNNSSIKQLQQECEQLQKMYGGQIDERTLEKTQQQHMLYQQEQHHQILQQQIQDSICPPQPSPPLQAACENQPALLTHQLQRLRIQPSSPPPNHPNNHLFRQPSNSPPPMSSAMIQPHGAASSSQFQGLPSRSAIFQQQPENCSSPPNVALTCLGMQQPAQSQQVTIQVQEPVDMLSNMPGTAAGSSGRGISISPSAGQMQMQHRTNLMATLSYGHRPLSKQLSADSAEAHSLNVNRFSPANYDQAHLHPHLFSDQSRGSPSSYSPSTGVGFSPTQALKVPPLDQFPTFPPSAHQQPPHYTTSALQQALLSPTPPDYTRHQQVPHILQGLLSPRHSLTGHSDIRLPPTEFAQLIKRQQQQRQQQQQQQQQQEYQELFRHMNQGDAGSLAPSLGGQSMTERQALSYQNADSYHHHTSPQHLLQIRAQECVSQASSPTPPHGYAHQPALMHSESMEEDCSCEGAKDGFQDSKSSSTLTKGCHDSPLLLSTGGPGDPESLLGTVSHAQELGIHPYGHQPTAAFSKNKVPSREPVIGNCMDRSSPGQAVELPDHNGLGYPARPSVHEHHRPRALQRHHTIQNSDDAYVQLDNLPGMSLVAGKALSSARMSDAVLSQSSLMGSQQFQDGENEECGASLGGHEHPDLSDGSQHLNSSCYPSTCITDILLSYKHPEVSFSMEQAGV

Chain of 178 full-length kinases (Homo sapiens, UniProt P30291) (P30291 whole entry): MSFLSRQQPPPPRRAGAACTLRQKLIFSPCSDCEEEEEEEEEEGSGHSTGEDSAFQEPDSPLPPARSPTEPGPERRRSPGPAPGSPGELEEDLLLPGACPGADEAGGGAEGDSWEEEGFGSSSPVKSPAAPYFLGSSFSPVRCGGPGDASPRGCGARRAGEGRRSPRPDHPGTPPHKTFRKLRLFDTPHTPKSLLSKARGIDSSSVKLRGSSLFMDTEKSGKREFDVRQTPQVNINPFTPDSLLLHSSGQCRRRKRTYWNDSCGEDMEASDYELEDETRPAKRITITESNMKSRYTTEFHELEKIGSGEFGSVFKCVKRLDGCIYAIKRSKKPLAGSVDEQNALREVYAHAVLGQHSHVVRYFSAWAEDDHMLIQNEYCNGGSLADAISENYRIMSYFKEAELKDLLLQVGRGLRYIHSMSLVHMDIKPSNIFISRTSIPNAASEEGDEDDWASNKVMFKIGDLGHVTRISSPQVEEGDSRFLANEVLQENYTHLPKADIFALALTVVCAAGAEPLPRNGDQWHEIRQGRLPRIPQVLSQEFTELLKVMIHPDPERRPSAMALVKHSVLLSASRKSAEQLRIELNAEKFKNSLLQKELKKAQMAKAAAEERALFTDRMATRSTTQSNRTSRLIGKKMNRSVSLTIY
Chain of 178 full-length kinases (Homo sapiens, UniProt O94768) (O94768 whole entry): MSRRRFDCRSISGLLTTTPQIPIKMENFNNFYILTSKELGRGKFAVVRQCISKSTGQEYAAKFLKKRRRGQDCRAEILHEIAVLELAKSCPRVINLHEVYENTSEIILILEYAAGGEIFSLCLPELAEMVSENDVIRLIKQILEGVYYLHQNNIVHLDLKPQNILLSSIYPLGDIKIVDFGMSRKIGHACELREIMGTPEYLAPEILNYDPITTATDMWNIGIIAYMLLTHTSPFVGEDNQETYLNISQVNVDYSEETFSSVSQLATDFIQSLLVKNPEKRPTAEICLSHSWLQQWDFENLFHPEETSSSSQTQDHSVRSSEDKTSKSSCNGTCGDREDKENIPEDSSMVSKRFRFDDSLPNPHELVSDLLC
Chain of 178 full-length kinases (Homo sapiens, UniProt Q9BVS4) (Q9BVS4 whole entry): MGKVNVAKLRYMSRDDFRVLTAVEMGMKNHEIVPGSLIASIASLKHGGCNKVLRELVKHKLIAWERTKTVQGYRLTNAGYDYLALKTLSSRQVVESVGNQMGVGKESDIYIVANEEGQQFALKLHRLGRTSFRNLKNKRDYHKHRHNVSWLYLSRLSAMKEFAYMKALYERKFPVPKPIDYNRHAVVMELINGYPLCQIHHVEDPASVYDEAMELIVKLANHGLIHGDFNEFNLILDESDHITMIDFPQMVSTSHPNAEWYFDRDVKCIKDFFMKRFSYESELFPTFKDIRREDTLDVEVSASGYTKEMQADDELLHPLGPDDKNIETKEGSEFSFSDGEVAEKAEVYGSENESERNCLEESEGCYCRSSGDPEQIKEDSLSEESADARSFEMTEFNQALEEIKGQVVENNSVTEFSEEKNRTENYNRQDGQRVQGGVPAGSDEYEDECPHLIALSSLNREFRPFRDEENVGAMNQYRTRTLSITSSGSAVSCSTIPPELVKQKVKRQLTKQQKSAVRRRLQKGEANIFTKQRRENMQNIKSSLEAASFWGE
Chain of 178 full-length kinases (Homo sapiens, UniProt P07333) (P07333 20-972): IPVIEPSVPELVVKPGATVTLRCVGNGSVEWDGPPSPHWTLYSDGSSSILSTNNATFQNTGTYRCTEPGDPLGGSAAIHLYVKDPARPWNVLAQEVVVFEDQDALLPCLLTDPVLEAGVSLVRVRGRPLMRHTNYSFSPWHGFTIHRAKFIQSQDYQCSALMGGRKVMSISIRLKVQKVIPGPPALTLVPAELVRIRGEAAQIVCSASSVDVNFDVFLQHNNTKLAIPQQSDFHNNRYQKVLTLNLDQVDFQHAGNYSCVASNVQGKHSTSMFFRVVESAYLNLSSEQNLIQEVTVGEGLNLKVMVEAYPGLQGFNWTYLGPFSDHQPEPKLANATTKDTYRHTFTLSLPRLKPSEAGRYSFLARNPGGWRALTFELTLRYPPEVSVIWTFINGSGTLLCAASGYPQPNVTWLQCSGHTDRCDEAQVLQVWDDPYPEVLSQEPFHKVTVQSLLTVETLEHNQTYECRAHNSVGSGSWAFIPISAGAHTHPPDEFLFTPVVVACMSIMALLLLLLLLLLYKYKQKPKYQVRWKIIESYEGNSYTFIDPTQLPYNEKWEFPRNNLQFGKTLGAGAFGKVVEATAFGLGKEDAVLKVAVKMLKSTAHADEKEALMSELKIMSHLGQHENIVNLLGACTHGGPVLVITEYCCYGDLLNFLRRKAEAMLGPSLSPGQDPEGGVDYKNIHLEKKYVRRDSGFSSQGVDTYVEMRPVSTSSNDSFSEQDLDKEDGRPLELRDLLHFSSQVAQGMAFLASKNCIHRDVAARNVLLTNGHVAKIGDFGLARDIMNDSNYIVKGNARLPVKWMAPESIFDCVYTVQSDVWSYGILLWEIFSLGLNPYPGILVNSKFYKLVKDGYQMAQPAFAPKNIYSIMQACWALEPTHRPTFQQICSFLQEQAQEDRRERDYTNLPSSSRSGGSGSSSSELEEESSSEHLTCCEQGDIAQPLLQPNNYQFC
Chain of 178 full-length kinases (Homo sapiens, UniProt O76039) (O76039 whole entry): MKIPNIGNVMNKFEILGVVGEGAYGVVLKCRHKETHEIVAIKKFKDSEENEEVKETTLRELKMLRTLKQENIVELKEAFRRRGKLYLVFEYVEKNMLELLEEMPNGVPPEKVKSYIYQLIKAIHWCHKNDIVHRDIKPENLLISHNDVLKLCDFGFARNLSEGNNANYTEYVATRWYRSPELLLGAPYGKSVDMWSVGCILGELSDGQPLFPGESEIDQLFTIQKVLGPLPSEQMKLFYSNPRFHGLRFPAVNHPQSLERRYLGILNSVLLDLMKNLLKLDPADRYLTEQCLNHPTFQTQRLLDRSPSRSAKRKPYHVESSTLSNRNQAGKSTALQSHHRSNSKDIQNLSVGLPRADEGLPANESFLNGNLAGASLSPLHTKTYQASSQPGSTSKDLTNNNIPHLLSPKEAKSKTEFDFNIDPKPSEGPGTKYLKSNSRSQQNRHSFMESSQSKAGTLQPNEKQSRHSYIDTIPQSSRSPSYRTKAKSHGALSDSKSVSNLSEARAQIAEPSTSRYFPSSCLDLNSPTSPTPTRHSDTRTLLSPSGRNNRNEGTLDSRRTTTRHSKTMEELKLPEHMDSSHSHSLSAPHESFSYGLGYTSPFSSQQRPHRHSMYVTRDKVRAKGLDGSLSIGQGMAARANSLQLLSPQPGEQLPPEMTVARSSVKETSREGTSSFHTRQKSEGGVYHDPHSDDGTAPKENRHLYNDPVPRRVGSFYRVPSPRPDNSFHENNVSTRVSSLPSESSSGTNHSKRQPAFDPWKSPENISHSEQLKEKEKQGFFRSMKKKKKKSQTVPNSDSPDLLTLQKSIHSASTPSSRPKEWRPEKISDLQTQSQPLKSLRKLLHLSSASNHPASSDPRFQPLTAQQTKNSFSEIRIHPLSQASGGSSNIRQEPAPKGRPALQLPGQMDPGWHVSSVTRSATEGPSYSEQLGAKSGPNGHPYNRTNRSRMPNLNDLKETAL

For `C[C@@H](Oc1cc(-c2cnn(C3CCNCC3)c2)cnc1N)c1c(Cl)ccc(F)c1Cl` [Crizotinib], the “Occupancy, % Replicate 1” value (178 full-length kinases [1]) was “No Binding”, the “Occupancy, % Replicate 2” value (178 full-length kinases [1]) was “No Binding” and the “Occupancy, % Replicate 1” value (178 full-length kinases [2]) was “No Binding”. For the same molecule, the “Occupancy, % Replicate 2” value (178 full-length kinases [3]) was “No Binding”, the “Occupancy, % Replicate 1” value (178 full-length kinases [4]) was “No Binding” and the “Occupancy, % Replicate 1” value (178 full-length kinases [5]; replicate 1) was “No Binding”. The “Occupancy, % Replicate 2” value (178 full-length kinases [5]; replicate 2) was “No Binding”, the “Occupancy, % Replicate 1” value (178 full-length kinases [6]) was “No Binding” and the “Occupancy, % Replicate 2” value (178 full-length kinases [6]) was “No Binding”. For the same molecule, the “Occupancy, % Replicate 1” value (178 full-length kinases [7]; replicate 1) was “No Binding”, the “Occupancy, % Replicate 2” value (178 full-length kinases [7]; replicate 2) was “No Binding” and the “Occupancy, % Replicate 1” value (178 full-length kinases [8]) was “No Binding”. The “Occupancy, % Replicate 2” value (178 full-length kinases [8]) was “No Binding”, the “Occupancy, % Replicate 2” value (178 full-length kinases [9]) was “No Binding” and the “Occupancy, % Replicate 2” value (178 full-length kinases [10]) was “No Binding”. For the same molecule, the “Occupancy, % Replicate 1” value (178 full-length kinases [11]) was “No Binding”, the receptor occupancy (178 full-length kinases [12]; read-out: Occupancy, % Replicate 1) was 12% and the receptor occupancy (178 full-length kinases [12]; read-out: Occupancy, % Replicate 2) was 12%. For the same molecule, the “Occupancy, % Replicate 1” value (178 full-length kinases [13]) was “No Binding”, the “Occupancy, % Replicate 2” value (178 full-length kinases [14]) was “No Binding” and the “Occupancy, % Replicate 1” value (178 full-length kinases [15]; replicate 1) was “No Binding”. The “Occupancy, % Replicate 2” value (178 full-length kinases [15]; replicate 2) was “No Binding”.
